The conditions of series [1]: read-out: Kd for HA; cited from earlier work.
The nature of series [2]: Relaxivity in PBS / Tris buffer / water (Bruker mq60 Minispec). In kind it is physicochemical. Conditions: 1.41 T, 37° C. Here is the method:
(§1) NMR spectra were recorded on a 500 MHz Varian spectrometer at 25° C. unless otherwise noted. Chemical shifts are reported in δ (ppm). For ^1H and ^13C NMR spectra, the residual solvent peaks were used as internal reference except for ^13C NMR recorded in D2O where dioxane was used as the internal references (Fulmer, Organometallics 2010, 29, 2176.).^1 Relaxivity measurements were performed on a Bruker mq60 Minispec, 1.41 T and 37° C. Longitudinal (T1) relaxation was acquired via an inversion recovery experiment using 10 inversion times of duration ranging between 0.05×T1 and 5×T1; tranverse […] relaxation was measured using a […] spin-echo experiment. Relaxivity (r1,2) was determined from the slope of a plot of 1/T1,2 vs. [Mn] for at least 4 concentrations. The transverse (T2) relaxation times of ^17O were acquired at 11.7 T from the full-width at half-height of the H2^17O signal (Gale, Carvan, J. Am. Chem. Soc. 2013, 135, 18600). ^17O T2 relaxivity (r2^O) was calculated by dividing the Mn-imparted increase in 1/T2 relative to neat H2O (pH 3) by the Mn concentration in mM. 0.7-1.0 mL NMR samples were enriched with a 10 μL of 18% H2^17O.

Series [3] relates to plasma proteins such as serum albumin. The experiment in a line: Relaxivity in human blood plasma. In kind it is physicochemical. Conditions: 1.41 T, 37° C. Here is the method:
as §1
Incorporation of lipophilic functionality into the chelate-metal complexes promotes binding to plasma proteins such as serum albumin. This binding provides a change in relaxivity measured in human blood plasma compared to that measured in PBS. In most cases, a large (40-170%) increase in relaxivity (r1 or r2) is observed (Table 1).

pKd: −log10 of the molar value.

As a reminder, the pKd is the Kd on a negative log10 scale, so that one unit is a factor of ten. For GAHWQFNALTVR, the pKd in series [1] is ~6.00.
For “Na[Mn(PyC3A-3-ethyl ester)] [Compound 10]”, the “r1 in PBS” value in series [2] amounted to 2.7 mM⁻¹ s⁻¹. In addition, the “r1 in human blood plasma” value in series [3] turned out to be 5.8 mM⁻¹ s⁻¹.
Regarding “Na[Mn(PyC3A-4-methoxy-3.5-dimethyl) [Compound 13]”, the “r1 in PBS” value in series [2] was found to be 2.5 mM⁻¹ s⁻¹. In addition, the “r1 in human blood plasma” value in series [3] was determined as 3.5 mM⁻¹ s⁻¹.
In the case of Na[Mn(PyC3A-5-hydrazide)] [Compound 25], in series [2], the “r1 in PBS” value is 3.4 mM⁻¹ s⁻¹. The “r1 in human blood plasma” value in series [3] amounted to 5.2 mM⁻¹ s⁻¹.
As for “Na[Mn(PyC3A-5-hydroxymethyl)] [Compound 7]”, the “r1 in PBS” value in series [2] amounted to 2.1 mM⁻¹ s⁻¹. For the same substance, in series [3], the “r1 in human blood plasma” value was 5.7 mM⁻¹ s⁻¹.
Regarding “Na[Mn(PyC3A-5-methyl ester)] [Compound 4]”, the “r1 in PBS” value in series [2] turned out to be 3.1 mM⁻¹ s⁻¹. For the same substance, the “r1 in human blood plasma” value in series [3] amounted to 2.1 mM⁻¹ s⁻¹.

Source of the values: patent US10835623B2, “Manganese-based chelate conjugates for molecular MR imaging” (The General Hospital Corporation, priority 2015, dated 2020).
